Laboratory results published in PMC5218480 (PLoS ONE, 2017).

Tested on: MV-4-11 cells
Experiment: Gene expression microarray analysis (Affymetrix PrimeView) and GSEA
Format: cell-based, human
Set-up: RFU PODN (11730768_x_at) / Fold change /veh PODN (11730768_x_at) / RFU LINC00158 (11744669_a_at) / Fold change /veh LINC00158 (11744669_a_at) / RFU DUSP10 (11751237_a_at) / Fold change /veh DUSP10 (11751237_a_at) / RFU ID3 (11757404_x_at) / Fold change /veh ID3 (11757404_x_at) / RFU PLEKHG5 (11737974_s_at) / Fold change /veh PLEKHG5 (11737974_s_at) / RFU LRRC4B (11730491_at) / Fold change /veh LRRC4B (11730491_at) / RFU GIMAP4 (11747438_a_at) / Fold change /veh GIMAP4 (11747438_a_at) / RFU KRT8 (11758183_x_at) / Fold change /veh KRT8 (11758183_x_at) / RFU CNN1 (11734310_a_at) / Fold change /veh CNN1 (11734310_a_at) / RFU VPS37D (11726825_at) / Fold change /veh VPS37D (11726825_at) / RFU C10orf10 (11716522_x_at) / Fold change /veh C10orf10 (11716522_x_at) / RFU KIR2DL2 /// KIR2DL4 /// KIR2DL5A /// KIR2DL5B /// KIR2DS1 /// KIR2DS2 /// KIR2DS3 /// KIR2DS4 /// KIR3DL3 /// KIR3DL3 /// KIR3DS1 (11738374_at) / Fold change /veh KIR2DL2 /// KIR2DL4 /// KIR2DL5A /// KIR2DL5B /// KIR2DS1 /// KIR2DS2 /// KIR2DS3 /// KIR2DS4 /// KIR3DL3 /// KIR3DL3 /// KIR3DS1 (11738374_at) / RFU C1QL1 (11718748_at) / Fold change /veh C1QL1 (11718748_at) / RFU TMPRSS4 (11747572_a_at) / Fold change /veh TMPRSS4 (11747572_a_at) / RFU HAMP (11756126_x_at) / Fold change /veh HAMP (11756126_x_at) / RFU RNFT2 (11725882_a_at) / Fold change /veh RNFT2 (11725882_a_at) / RFU NR4A2 (11747474_a_at) / Fold change /veh NR4A2 (11747474_a_at) / RFU ABCC12 (11746883_a_at) / Fold change /veh ABCC12 (11746883_a_at) / RFU TMEM136 (11760407_x_at) / Fold change /veh TMEM136 (11760407_x_at) / RFU CLDN22 /// WWC2 (11732394_at) / Fold change /veh CLDN22 /// WWC2 (11732394_at) / RFU HLA-DPB1 (11760878_x_at) / Fold change /veh HLA-DPB1 (11760878_x_at) / RFU SPINT1 (11716480_a_at) / Fold change /veh SPINT1 (11716480_a_at) / RFU GAP43 (11754022_s_at) / Fold change /veh GAP43 (11754022_s_at) / RFU A4GNT (11735810_at) / Fold change /veh A4GNT (11735810_at) / RFU PRB3 (11715151_x_at) / Fold change /veh PRB3 (11715151_x_at) / RFU TUBB4B (11761932_at) / Fold change /veh TUBB4B (11761932_at) / RFU CAPN14 (11732068_a_at) / Fold change /veh CAPN14 (11732068_a_at) / RFU TMCC2 (11721928_a_at) / Fold change /veh TMCC2 (11721928_a_at) / RFU IRGQ (11745062_a_at) / Fold change /veh IRGQ (11745062_a_at) / RFU FAM174B (11720279_a_at) / Fold change /veh FAM174B (11720279_a_at) / RFU TMPRSS4 (11748680_a_at) / Fold change /veh TMPRSS4 (11748680_a_at) / RFU FAM212B (11763350_a_at) / Fold change /veh FAM212B (11763350_a_at) / RFU PLEKHG5 (11743358_a_at) / Fold change /veh PLEKHG5 (11743358_a_at) / RFU ZSCAN30 (11745921_a_at) / Fold change /veh ZSCAN30 (11745921_a_at) / RFU CMKLR1 (11741424_a_at) / Fold change /veh CMKLR1 (11741424_a_at) / RFU LOC101060620 /// MAPK8IP1 (11723275_at) / Fold change /veh LOC101060620 /// MAPK8IP1 (11723275_at) / RFU SPTSSB (11747773_x_at) / Fold change /veh SPTSSB (11747773_x_at) / RFU PRSS12 (11739890_at) / Fold change /veh PRSS12 (11739890_at) / RFU BIN1 (11741810_x_at) / Fold change /veh BIN1 (11741810_x_at) / RFU WNT11 (11732464_a_at) / Fold change /veh WNT11 (11732464_a_at) / RFU C10orf10 (11716521_a_at) / Fold change /veh C10orf10 (11716521_a_at) / RFU C5orf56 (11738089_at) / Fold change /veh C5orf56 (11738089_at) / RFU CYB561 (11721691_x_at) / Fold change /veh CYB561 (11721691_x_at) / RFU ANKRD19P (11752326_a_at) / Fold change /veh ANKRD19P (11752326_a_at) / RFU OR2T12 /// OR2T33 /// OR2T8 (11738714_s_at) / Fold change /veh OR2T12 /// OR2T33 /// OR2T8 (11738714_s_at) / RFU VCAN (11748164_a_at) / Fold change /veh VCAN (11748164_a_at) / RFU JSRP1 (11732532_at) / Fold change /veh JSRP1 (11732532_at) / RFU KRTAP10-11 (11738290_x_at) / Fold change /veh KRTAP10-11 (11738290_x_at) / RFU MYO3A (11730013_a_at) / Fold change /veh MYO3A (11730013_a_at) / RFU EBF3 (11725865_a_at) / Fold change /veh EBF3 (11725865_a_at) / RFU CAMK2N1 (11719241_x_at) / Fold change /veh CAMK2N1 (11719241_x_at) / RFU C5orf56 (11738088_a_at) / Fold change /veh C5orf56 (11738088_a_at) / RFU OLFML3 (11715873_a_at) / Fold change /veh OLFML3 (11715873_a_at) / RFU LOC100653217 /// NTM (11731650_a_at) / Fold change /veh LOC100653217 /// NTM (11731650_a_at) / RFU MAPK11 (11762145_a_at) / Fold change /veh MAPK11 (11762145_a_at) / RFU FIZ1 (11724087_x_at) / Fold change /veh FIZ1 (11724087_x_at) / RFU OASL (11726364_x_at) / Fold change /veh OASL (11726364_x_at) / RFU SOX15 (11748057_x_at) / Fold change /veh SOX15 (11748057_x_at) / RFU CD79A (11719716_a_at) / Fold change /veh CD79A (11719716_a_at) / RFU HIST1H1D (11736915_at) / Fold change /veh HIST1H1D (11736915_at) / RFU CASKIN2 (11723855_a_at) / Fold change /veh CASKIN2 (11723855_a_at) / RFU LOC730098 (11760151_x_at) / Fold change /veh LOC730098 (11760151_x_at) / RFU OR4N2 (11742367_at) / Fold change /veh OR4N2 (11742367_at) / RFU PRRT2 (11749266_a_at) / Fold change /veh PRRT2 (11749266_a_at) / RFU SNX32 (11753110_a_at) / Fold change /veh SNX32 (11753110_a_at) / RFU CDHR5 (11726645_a_at) / Fold change /veh CDHR5 (11726645_a_at) / RFU RCAN1 (11760418_a_at) / Fold change /veh RCAN1 (11760418_a_at) / RFU FAM167A (11723789_a_at) / Fold change /veh FAM167A (11723789_a_at) / RFU FAM26E (11764081_at) / Fold change /veh FAM26E (11764081_at) / RFU ISYNA1 (11749810_s_at) / Fold change /veh ISYNA1 (11749810_s_at) / RFU ACY1 (11761880_at) / Fold change /veh ACY1 (11761880_at) / RFU 11764098_at / Fold change /veh 11764098_at / RFU SAMD14 (11745864_x_at) / Fold change /veh SAMD14 (11745864_x_at) / RFU NPB (11741838_a_at) / Fold change /veh NPB (11741838_a_at) / RFU TMPRSS6 (11731388_a_at) / Fold change /veh TMPRSS6 (11731388_a_at) / RFU KRTAP10-2 (11738614_at) / Fold change /veh KRTAP10-2 (11738614_at) / RFU ARHGAP8 /// PRR5-ARHGAP8 (11727945_x_at) / Fold change /veh ARHGAP8 /// PRR5-ARHGAP8 (11727945_x_at) / RFU KRTAP5-7 /// NADSYN1 (11734609_at) / Fold change /veh KRTAP5-7 /// NADSYN1 (11734609_at) / RFU RASL12 (11751679_a_at) / Fold change /veh RASL12 (11751679_a_at) / RFU CDKN2B (11736163_a_at) / Fold change /veh CDKN2B (11736163_a_at) / RFU PRF1 (11729649_at) / Fold change /veh PRF1 (11729649_at) / RFU, ZNF638 /// ZNF638-IT1 / Fold change vs veh, ZNF638 /// ZNF638-IT1 / RFU, PANK3 / Fold change vs veh, PANK3 / RFU, SH3YL1 / Fold change vs veh, SH3YL1 / RFU, ZEB2 / Fold change vs veh, ZEB2 / RFU, NRIP1 / Fold change vs veh, NRIP1 / RFU, PTTG1IP / Fold change vs veh, PTTG1IP / RFU, CAPN2 / Fold change vs veh, CAPN2 / RFU, MED14 / Fold change vs veh, MED14 / RFU, SNORA58 / Fold change vs veh, SNORA58 / RFU, C1orf63 / Fold change vs veh, C1orf63 / RFU, LRRFIP1 / Fold change vs veh, LRRFIP1 / RFU, NDUFAF7 / Fold change vs veh, NDUFAF7 / RFU, SLC12A2 / Fold change vs veh, SLC12A2 / RFU, IBTK / Fold change vs veh, IBTK / RFU, ESF1 / Fold change vs veh, ESF1 / Fold change vs veh, TMEM50B / RFU, TAOK1 / Fold change vs veh, TAOK1 / RFU, ACBD3 / Fold change vs veh, ACBD3 / RFU, TMA16 / Fold change vs veh, TMA16 / RFU, RWDD3 / Fold change vs veh, RWDD3 / RFU, BCAT1 / Fold change vs veh, BCAT1 / RFU, EDEM3 / Fold change vs veh, EDEM3 / RFU, TMEM33 / Fold change vs veh, TMEM33 / RFU, WDR75 / Fold change vs veh, WDR75 / RFU, AHCTF1 / Fold change vs veh, AHCTF1 / RFU, TFRC / Fold change vs veh, TFRC / RFU, ZDHHC17 / Fold change vs veh, ZDHHC17 / RFU, NOM1 / Fold change vs veh, NOM1 / RFU, ARL8B / Fold change vs veh, ARL8B / RFU, ZBTB11 / Fold change vs veh, ZBTB11 / RFU, TAMM41 / Fold change vs veh, TAMM41 / RFU, KIAA1704 /// LOC100996395 / Fold change vs veh, KIAA1704 /// LOC100996395 / RFU, ING1 / Fold change vs veh, ING1 / RFU, TRMT61B / Fold change vs veh, TRMT61B / RFU, FUBP3 / Fold change vs veh, FUBP3 / RFU, TP53 / Fold change vs veh, TP53 / RFU, TNKS2 / Fold change vs veh, TNKS2 / RFU, ZFP14 / Fold change vs veh, ZFP14 / RFU, ACTR2 / Fold change vs veh, ACTR2 / RFU, PPP3R1 / Fold change vs veh, PPP3R1 / RFU, PIK3R1 / Fold change vs veh, PIK3R1 / RFU, HNRNPA1 / Fold change vs veh, HNRNPA1 / RFU, RNF170 / Fold change vs veh, RNF170 / RFU, ZNF28 / Fold change vs veh, ZNF28 / RFU, RNGTT / Fold change vs veh, RNGTT / RFU, OGT / Fold change vs veh, OGT / RFU, BRD1 / Fold change vs veh, BRD1 / RFU, MARS / Fold change vs veh, MARS / RFU, ZNF655 / Fold change vs veh, ZNF655 / RFU, FAHD1 / Fold change vs veh, FAHD1 / RFU, BDP1 / Fold change vs veh, BDP1 / RFU, LRRCC1 / Fold change vs veh, LRRCC1 / RFU, ARID1A / Fold change vs veh, ARID1A / RFU, ZNF146 / Fold change vs veh, ZNF146 / RFU, ZNF330 / Fold change vs veh, ZNF330 / RFU, GPN3 / Fold change vs veh, GPN3 / RFU, C9orf123 / Fold change vs veh, C9orf123 / RFU, N4BP2L2 / Fold change vs veh, N4BP2L2 / RFU, ARFIP1 / Fold change vs veh, ARFIP1 / RFU, FAM179B / Fold change vs veh, FAM179B / RFU, BCL10 / Fold change vs veh, BCL10 / RFU, UHRF1BP1L / Fold change vs veh, UHRF1BP1L / RFU, BET1 / Fold change vs veh, BET1 / RFU, CNOT2 / Fold change vs veh, CNOT2 / RFU, ZNF268 / Fold change vs veh, ZNF268 / Fold change vs veh, ZNF507 / RFU, DGCR2 / Fold change vs veh, DGCR2 / RFU, WDSUB1 / Fold change vs veh, WDSUB1 / Fold change vs veh, HSP90B1 /// MIR3652 / RFU, ADSS / Fold change vs veh, ADSS / RFU, GK / Fold change vs veh, GK / RFU, ZNF148 / Fold change vs veh, ZNF148 / RFU, TAF9 / Fold change vs veh, TAF9 / RFU, SLC1A5 / Fold change vs veh, SLC1A5 / RFU, SLMO2 / Fold change vs veh, SLMO2 / RFU, ABCC4 / Fold change vs veh, ABCC4 / RFU, LOC101060439 /// RAP1B / Fold change vs veh, LOC101060439 /// RAP1B / RFU, RFX7 / Fold change vs veh, RFX7 / RFU, GTPBP10 / Fold change vs veh, GTPBP10 / RFU, CNEP1R1 / Fold change vs veh, CNEP1R1 / RFU, BIVM-ERCC5 /// ERCC5 / Fold change vs veh, BIVM-ERCC5 /// ERCC5 / RFU, ILF3 / Fold change vs veh, ILF3 / RFU 11762660_at / Fold change /veh 11762660_at / RFU VCAN (11757783_s_at) / Fold change /veh VCAN (11757783_s_at) / RFU DDX43 (11728927_at) / Fold change /veh DDX43 (11728927_at) / RFU KRT8 (11758188_x_at) / Fold change /veh KRT8 (11758188_x_at) / RFU NKD1 (11759106_at) / Fold change /veh NKD1 (11759106_at) / RFU SRD5A1 (11742802_a_at) / Fold change /veh SRD5A1 (11742802_a_at) / RFU TPSAB1 /// TPSB2 (11721975_s_at) / Fold change /veh TPSAB1 /// TPSB2 (11721975_s_at) / RFU GSTM3 (11746129_a_at) / Fold change /veh GSTM3 (11746129_a_at) / RFU IL23R (11737362_x_at) / Fold change /veh IL23R (11737362_x_at) / RFU TMEM51 (11727254_a_at) / Fold change /veh TMEM51 (11727254_a_at) / RFU PIWIL2 (11732686_x_at) / Fold change /veh PIWIL2 (11732686_x_at) / RFU ORM1 (11744905_x_at) / Fold change /veh ORM1 (11744905_x_at) / RFU CCDC152 (11743942_at) / Fold change /veh CCDC152 (11743942_at) / RFU ECM1 (11717891_a_at) / Fold change /veh ECM1 (11717891_a_at) / RFU IL23R (11748794_a_at) / Fold change /veh IL23R (11748794_a_at) / RFU TNFAIP8L3 (11732012_x_at) / Fold change /veh TNFAIP8L3 (11732012_x_at) / RFU MBOAT4 (11741988_at) / Fold change /veh MBOAT4 (11741988_at) / RFU 11764193_at / Fold change /veh 11764193_at / RFU TMEM53 (11763286_at) / Fold change /veh TMEM53 (11763286_at) / RFU MAGEB2 (11727129_at) / Fold change /veh MAGEB2 (11727129_at) / RFU TMEM200A (11744735_a_at) / Fold change /veh TMEM200A (11744735_a_at) / RFU CCDC152 (11751479_a_at) / Fold change /veh CCDC152 (11751479_a_at) / RFU FAM211A (11726209_a_at) / Fold change /veh FAM211A (11726209_a_at) / RFU RGS16 (11746705_a_at) / Fold change /veh RGS16 (11746705_a_at) / RFU VCAN (11755009_s_at) / Fold change /veh VCAN (11755009_s_at) / RFU RHOB (11743442_s_at) / Fold change /veh RHOB (11743442_s_at) / RFU RGS16 (11720943_a_at) / Fold change /veh RGS16 (11720943_a_at) / RFU RGS16 (11720944_at) / Fold change /veh RGS16 (11720944_at) / RFU, VPS4B / Fold change vs veh, VPS4B / RFU, CREB1 / Fold change vs veh, CREB1 / RFU, DNAJC13 / Fold change vs veh, DNAJC13 / RFU, GNAQ / Fold change vs veh, GNAQ / RFU, CDK5R1 / Fold change vs veh, CDK5R1 / RFU, ZRANB3 / Fold change vs veh, ZRANB3 / RFU, CUL4A / Fold change vs veh, CUL4A / RFU, CCNY / Fold change vs veh, CCNY / RFU, UFL1 / Fold change vs veh, UFL1 / RFU, COG3 / Fold change vs veh, COG3 / RFU, DIAPH2 / Fold change vs veh, DIAPH2 / RFU, SKA2 / Fold change vs veh, SKA2 / RFU, AFF3 / Fold change vs veh, AFF3 / RFU, LMF1 / Fold change vs veh, LMF1 / RFU, IPO11 / Fold change vs veh, IPO11 / RFU, DFFB / Fold change vs veh, DFFB / RFU, FOXP1 / Fold change vs veh, FOXP1 / RFU, CARD8 / Fold change vs veh, CARD8 / RFU, STRN3 / Fold change vs veh, STRN3 / RFU, ADK / Fold change vs veh, ADK / RFU, RASSF2 / Fold change vs veh, RASSF2 / RFU, WIPF1 / Fold change vs veh, WIPF1 / RFU, LARP1B / Fold change vs veh, LARP1B / RFU, RASA1 / Fold change vs veh, RASA1 / RFU, RB1 / Fold change vs veh, RB1 / RFU, PPFIA1 / Fold change vs veh, PPFIA1 / RFU, MAT2A / Fold change vs veh, MAT2A / RFU, CCT5 / Fold change vs veh, CCT5 / RFU, WDR92 / Fold change vs veh, WDR92 / RFU, CUX1 / Fold change vs veh, CUX1 / RFU, TTC7A / Fold change vs veh, TTC7A / RFU, TMEM135 / Fold change vs veh, TMEM135 / RFU, DEPTOR / Fold change vs veh, DEPTOR / RFU, CPM / Fold change vs veh, CPM / RFU, DNAJB6 / Fold change vs veh, DNAJB6 / RFU, CACNA2D3 / Fold change vs veh, CACNA2D3 / RFU, DTX4 / Fold change vs veh, DTX4 / RFU, TFCP2 / Fold change vs veh, TFCP2 / RFU, GMCL1 /// GMCL1P1 / Fold change vs veh, GMCL1 /// GMCL1P1 / RFU, AEBP2 / Fold change vs veh, AEBP2 / RFU, SNHG1 /// SNORD22 /// SNORD25 /// SNORD26 /// SNORD27 /// SNORD28 /// SNORD29 /// SNORD31 / Fold change vs veh, SNHG1 /// SNORD22 /// SNORD25 /// SNORD26 /// SNORD27 /// SNORD28 /// SNORD29 /// SNORD31 / Fold change (Aza/veh), C12orf56 (ProbeSet 11735607_a_at) / Fold change (ACY-1035/veh), C12orf56 (ProbeSet 11735607_a_at) / Fold change (Aza/veh), FGFR1OP (ProbeSet 11751329_s_at) / Fold change (ACY-1035/veh), FGFR1OP (ProbeSet 11751329_s_at) / Fold change (Aza/veh), VPS36 (ProbeSet 11739960_a_at) / Fold change (ACY-1035/veh), VPS36 (ProbeSet 11739960_a_at) / RFU SYPL1 (11715823_x_at) / Fold change /veh SYPL1 (11715823_x_at) / RFU IGFBP7 (11715501_s_at) / Fold change /veh IGFBP7 (11715501_s_at) / RFU REEP3 (11722064_at) / Fold change /veh REEP3 (11722064_at) / RFU IGLL1 (11728026_x_at) / Fold change /veh IGLL1 (11728026_x_at): dose or concentration left out as unconfirmed
Details: MV-4-11 cells, 48 hours

In the case of `Nc1ncn([C@@H]2O[C@H](CO)[C@@H](O)[C@H]2O)c(=O)n1` [azacitidine], the “Fold change /veh ECM1 (11717891_a_at)” value was 1.26.
